Source: the NIST ThermoML archive (doi:10.1021/je060107n)
± gives the expanded uncertainty stated by the source.

Assay: mn = molality of the nth substance listed, in mol/kg
Details: 101 kPa, Liquid; for mass density: Pycnometric method; for viscosity: Capillary tube (Ostwald / Ubbelohde) method; for speed of sound: Linear variable-path acoustic interferometer

O=[N+]([O-])[O-].O=[N+]([O-])[O-].[Mg+2] [magnesium nitrate] + O
Details | mass density [kg/m3] | speed of sound [m/s] | viscosity [mPa·s]
302.1 K, m1 = 3.096 | 1269.1 ± 0.9 | – | –
302.1 K, m1 = 3.501 | 1297.2 ± 0.9 | – | –
302.25 K, m1 = 2.131 | 1194.8 ± 0.8 | – | –
302.25 K, m1 = 3.17 | 1278.7 ± 1.5 | – | –
302.3 K, m1 = 4.728 | 1376.3 ± 1 | – | –
302.4 K, m1 = 4.285 | 1347.6 ± 0.9 | – | –
302.55 K, m1 = 0.3405 | 1030.8 ± 0.9 | – | –
302.55 K, m1 = 2.493 | 1222.7 ± 0.8 | – | –
302.6 K, m1 = 1.827 | 1169.5 ± 0.8 | – | –
302.6 K, m1 = 4.883 | 1382.9 ± 0.9 | – | –
302.95 K, m1 = 4.039 | 1330.8 ± 0.9 | – | –
302.95 K, m1 = 5.134 | 1399.9 ± 1 | – | –
303.05 K, m1 = 0.0145 | 996.95 ± 0.64 | – | –
303.1 K, m1 = 1.694 | 1156.4 ± 0.7 | – | –
303.1 K, m1 = 2.584 | 1230.7 ± 0.8 | – | –
303.1 K, m1 = 2.793 | 1246.1 ± 0.9 | – | –
303.15 K, m1 = 0.0145 | – | 1509.5 ± 1.9 | 0.8115 ± 0.011
303.15 K, m1 = 0.0528 | – | 1511.9 ± 1.9 | 0.825 ± 0.011
303.15 K, m1 = 0.2491 | – | 1526.5 ± 1.9 | 0.8716 ± 0.012
303.15 K, m1 = 0.3405 | – | 1529.9 ± 1.9 | –
303.15 K, m1 = 0.5931 | – | – | 0.9679 ± 0.013
303.15 K, m1 = 0.6173 | – | 1550.7 ± 1.9 | –
303.15 K, m1 = 0.896 | – | 1571.2 ± 1.9 | –
303.15 K, m1 = 0.9898 | – | 1578.7 ± 1.9 | 1.112 ± 0.015
303.15 K, m1 = 1.262 | – | 1596.4 ± 1.9 | 1.228 ± 0.016
303.15 K, m1 = 1.525 | – | 1617 ± 1.9 | –
303.15 K, m1 = 1.827 | – | 1641 ± 1.9 | 1.493 ± 0.02
303.15 K, m1 = 2.131 | – | 1663.8 ± 2 | 1.654 ± 0.022
303.15 K, m1 = 2.493 | – | 1686.8 ± 2 | –
303.15 K, m1 = 2.584 | – | – | 1.969 ± 0.026
303.15 K, m1 = 2.793 | – | 1708.1 ± 2 | –
303.15 K, m1 = 3.096 | – | – | 2.38 ± 0.031
303.15 K, m1 = 3.118 | – | 1729.1 ± 2 | –
303.15 K, m1 = 3.17 | – | 1736.9 ± 2 | –
303.15 K, m1 = 3.329 | – | – | 2.611 ± 0.034
303.15 K, m1 = 3.501 | – | 1753.9 ± 2 | –
303.15 K, m1 = 3.704 | – | – | 2.998 ± 0.039
303.15 K, m1 = 3.757 | – | 1772.5 ± 2 | –
303.15 K, m1 = 4.039 | – | – | 3.462 ± 0.046
303.15 K, m1 = 4.051 | – | 1783.6 ± 2 | –
303.15 K, m1 = 4.285 | – | 1797.4 ± 2.1 | –
303.15 K, m1 = 4.403 | – | 1804.5 ± 2.1 | –
303.15 K, m1 = 4.728 | – | – | 4.73 ± 0.062
303.15 K, m1 = 4.883 | – | 1830.6 ± 2.1 | –
303.15 K, m1 = 4.907 | – | – | 5.225 ± 0.069
303.15 K, m1 = 4.97 | 1388.7 ± 0.9 | – | –
303.15 K, m1 = 5.134 | – | 1842.9 ± 2.1 | –
303.15 K, m1 = 5.282 | – | – | 6.141 ± 0.081
303.25 K, m1 = 0.0528 | 1001.1 ± 0.7 | – | –
303.3 K, m1 = 3.704 | 1309.8 ± 0.9 | – | –
303.5 K, m1 = 1.525 | 1141.2 ± 0.8 | – | –
303.5 K, m1 = 4.403 | 1353.9 ± 0.9 | – | –
303.55 K, m1 = 1.262 | 1118.2 ± 0.7 | – | –
303.85 K, m1 = 0.5931 | 1055.1 ± 0.8 | – | –
303.9 K, m1 = 0.896 | 1084.7 ± 0.7 | – | –
304.15 K, m1 = 0.6173 | 1057.7 ± 0.7 | – | –
304.25 K, m1 = 3.096 | 1267.7 ± 0.9 | – | –
304.35 K, m1 = 3.501 | 1295.8 ± 0.9 | – | –
304.35 K, m1 = 3.757 | 1312.3 ± 0.9 | – | –
304.55 K, m1 = 2.131 | 1193.6 ± 0.8 | – | –
304.55 K, m1 = 3.118 | 1268.5 ± 0.8 | – | –
304.55 K, m1 = 4.285 | 1346.2 ± 0.9 | – | –
304.55 K, m1 = 4.728 | 1374.9 ± 1 | – | –
304.8 K, m1 = 4.883 | 1381.4 ± 1 | – | –
305 K, m1 = 0.2491 | 1021.1 ± 0.7 | – | –
305 K, m1 = 1.827 | 1168.3 ± 0.8 | – | –
305.05 K, m1 = 2.493 | 1221.3 ± 0.8 | – | –
305.2 K, m1 = 4.051 | 1329.4 ± 0.9 | – | –
305.25 K, m1 = 4.039 | 1329.3 ± 0.9 | – | –
305.3 K, m1 = 1.694 | 1155.3 ± 0.8 | – | –
305.35 K, m1 = 2.584 | 1229.4 ± 0.8 | – | –
305.5 K, m1 = 2.793 | 1244.7 ± 0.9 | – | –
305.55 K, m1 = 3.704 | 1308.4 ± 0.9 | – | –
305.8 K, m1 = 0.9898 | 1093 ± 0.8 | – | –
305.85 K, m1 = 0.3405 | 1029.6 ± 0.7 | – | –
305.95 K, m1 = 1.525 | 1139.9 ± 0.8 | – | –
